Experiments:
Assay type in all cases: in vivo
[1] = system: galium (catchweed bedstraw, Galium aparine); assay: Test A greenhouse herbicide test, postemergence; details: for Galium plant response rating: 0 to 100 scale, 0 is no effect, 100 is complete control
Summary of the method: (§1)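 Plants grown in loam soil/sand blend pots were treated postemergence at 2 to 10 cm height, one- to two-leaf stage, with formulated test chemicals. After approximately 10 d in a greenhouse, injury was rated visually against untreated controls on a 0 to 100 scale (0 no effect, 100 complete control).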

[2] = system: blackgrass (Alopecurus myosuroides); assay: Test A greenhouse herbicide test, postemergence; details: for Blackgrass plant response rating: 0 to 100 scale, 0 is no effect, 100 is complete control
Summary of the method: as §1

[3] = system: ducksalad (Heteranthera limosa); assay: Test B flooded paddy test; details: 250 g ai/ha, Flood; visual rating on scale of 0 to 100 where 0 is no effect and 100 is complete control; 13 to 15 d after treatment
Summary of the method: (§2)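 Plants at the 2-leaf stage were flooded to 3 cm above soil, and test compounds were applied directly into the paddy water, which was held at that depth throughout. After 13 to 15 d in a greenhouse, injury was rated visually against untreated controls on a 0–100 scale (0 no effect, 100 complete control).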

[4] = system: sedge, umbrella (small-flower umbrella sedge, Cyperus difformis); assay: Test B flooded paddy test; details: 250 g ai/ha, Flood; visual rating on scale of 0 to 100 where 0 is no effect and 100 is complete control; 13 to 15 d after treatment
Summary of the method: as §2

[5] = system: barnyardgrass (Echinochloa crus-galli); assay: Test B flooded paddy test; details: 250 g ai/ha, Flood; visual rating on scale of 0 to 100 where 0 is no effect and 100 is complete control; 13 to 15 d after treatment
Summary of the method: as §2

[6] = system: rice (Oryza sativa); assay: Test B flooded paddy test; details: 250 g ai/ha, Flood; visual rating on scale of 0 to 100 where 0 is no effect and 100 is complete control; 13 to 15 d after treatment
Summary of the method: as §2

[7] = system: corn (Zea mays); assay: Test A greenhouse herbicide test, pre- and postemergence; details: Postemergence; for Corn plant response rating: 0 to 100 scale, 0 is no effect, 100 is complete control
Summary of the method: (§3)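 Seeds sown in loam–sand blend got a preemergence directed soil spray of compound in non-phytotoxic solvent with surfactant. Postemergence treatment was given at 2–10 cm, one- to two-leaf stage. After ~10 d in greenhouse, injury was rated visually vs untreated controls, 0 (no effect) to 100 (complete control).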

[8] = system: foxtail, giant (giant foxtail, Setaria faberii); assay: as above
Summary of the method: as §3

[9] = system: ryegrass, Italian (Italian ryegrass, Lolium multiflorum); assay: as above
Summary of the method: as §3

[10] = system: barnyardgrass (Echinochloa crus-galli); assay: as above
Summary of the method: as §3

[11] = system: kochia (Kochia scoparia); assay: as above
Summary of the method: as §3

[12] = system: pigweed (Amaranthus retroflexus); assay: as above
Summary of the method: as §3

[13] = system: wheat (Triticum aestivum); assay: as above; details: Postemergence; for Wheat plant response rating: 0 to 100 scale, 0 is no effect, 100 is complete control
Summary of the method: as §3

[14] = system: ragweed (common ragweed, Ambrosia elatior); assay: as above
Summary of the method: as §3

[15] = 125 g ai/ha, 0 to 100 scale where 0 is no effect and 100 is complete control
[16] = Postemergence, 125 g ai/ha, 0 to 100 scale where 0 is no effect and 100 is complete control
[17] = Postemergence, 500 g ai/ha, 0 to 100 scale, 0 is no effect, 100 is complete control
[18] = Preemergence, 125 g ai/ha, 0 to 100 scale where 0 is no effect and 100 is complete control
[19] = Preemergence, 500 g ai/ha, 0 to 100 scale where 0 is no effect and 100 is complete control
[20] = Postemergence, 1000 g ai/ha, 0 to 100 scale, 0 is no effect, 100 is complete control
[21] = Preemergence, 1000 g ai/ha, 0 to 100 scale, 0 no effect, 100 complete control
[22] = 500 g ai/ha, visual rating after approx. 10 d, 0 to 100 scale (0 no effect, 100 complete control)
[23] = Postemergence, 500 g ai/ha, visual rating after approx. 10 d, 0 to 100 scale (0 no effect, 100 complete control)

| Structure (SMILES) | Plant response rating, Galium [1, 15] | Plant response rating, Blackgrass [2, 15] | Plant response rating, Ducksalad [3] | Plant response rating, Sedge, Umbrella [4] | Plant response rating, Barnyardgrass [5] | Plant response rating, Rice [6] | Plant response rating, Corn [7, 15] | Plant response rating, Foxtail, Giant [8, 16] | Foxtail, Giant plant response rating [8, 18] | Plant response rating, Foxtail, Giant [8, 19] | Plant response rating, Ryegrass, Italian [9, 16] | Ryegrass, Italian plant response rating [9, 18] | Plant response rating, Ryegrass, Italian [9, 19] | Plant response rating, Barnyardgrass [10, 16] | Barnyardgrass plant response rating [10, 18] | Plant response rating, Kochia [11, 16] | Kochia plant response rating [11, 18] | Plant response rating, Kochia [11, 19] | Plant response rating, Pigweed [12, 16] | Pigweed plant response rating [12, 18] | further results |
| --- | --- | --- | --- | --- | --- | --- | --- | --- | --- | --- | --- | --- | --- | --- | --- | --- | --- | --- | --- | --- | --- |
| CCOc1ccc2oc(CC)c(-c3c(O)c(C)nn(C)c3=O)c2c1 [Compound 68] | 0 | 0 | 0 | 30 | 0 | 0 | 0 | 10 | 10 | 50 | 0 | 0 | 0 | 70 | 10 | 0 | 0 | 0 | 0 | 0 | Galium plant response rating ([1]; 500 g ai/ha): 0; Blackgrass plant response rating ([2]; 500 g ai/ha): 10; Corn plant response rating ([7]; 500 g ai/ha): 0; Foxtail, Giant plant response rating [8, 17]: 50; Ryegrass, Italian plant response rating [9, 17]: 0; Barnyardgrass plant response rating [10, 17]: 80; Plant response rating, Barnyardgrass ([10]; Preemergence, 500 g ai/ha, 0 to 100 scale, 0 no effect, 100 complete control): 40; Kochia plant response rating [11, 17]: 0; Pigweed plant response rating [12, 17]: 0; Plant response rating, Pigweed [12, 19]: 0; Plant response rating, Wheat [13, 15]: 0; Wheat plant response rating ([13]; 500 g ai/ha): 0; Plant response rating, Ragweed [14, 16]: 0; Ragweed plant response rating [14, 17]: 0; Ragweed plant response rating [14, 18]: 0; Plant response rating, Ragweed [14, 19]: 20 |
| Cc1nn(C)c(=O)c(-c2cccc3ccccc23)c1OCC(=O)C1CC1 [Compound 181] |  |  | 0 | 0 | 0 | 0 |  |  |  |  |  |  |  |  |  |  |  |  |  |  | Galium plant response rating ([1]; 1000 g ai/ha): 80; Blackgrass plant response rating ([2]; 1000 g ai/ha): 20; Corn plant response rating ([7]; 1000 g ai/ha): 0; Foxtail, Giant plant response rating [8, 20]: 0; Plant response rating, Foxtail, Giant [8, 21]: 0; Ryegrass, Italian plant response rating [9, 20]: 80; Plant response rating, Ryegrass, Italian [9, 21]: 60; Barnyardgrass plant response rating [10, 20]: 0; Plant response rating, Barnyardgrass [10, 21]: 0; Kochia plant response rating [11, 20]: 0; Plant response rating, Kochia [11, 21]: 10; Pigweed plant response rating [12, 20]: 30; Plant response rating, Pigweed [12, 21]: 30; Wheat plant response rating ([13]; 1000 g ai/ha): 0; Ragweed plant response rating [14, 20]: 30; Plant response rating, Ragweed [14, 21]: 10 |
| Cc1ccc2ccccc2c1-c1c(OC(=O)C(C)(C)C)c(C#N)nn(C)c1=O [Compound 128] | 40 | 0 | 30 | 0 | 0 | 0 | 0 | 50 | 80 | 90 | 20 | 10 | 30 | 50 | 50 | 0 | 0 | 0 | 70 | 90 | Plant response rating, Galium [1, 22]: 70; Plant response rating, Blackgrass [2, 22]: 20; Plant response rating, Corn [7, 22]: 0; Plant response rating, Foxtail, Giant [8, 23]: 70; Plant response rating, Ryegrass, Italian [9, 23]: 50; Plant response rating, Barnyardgrass [10, 23]: 80; Plant response rating, Barnyardgrass [10, 19]: 90; Plant response rating, Kochia [11, 23]: 0; Plant response rating, Pigweed [12, 23]: 90; Plant response rating, Pigweed [12, 19]: 100; Plant response rating, Wheat [13, 15]: 0; Plant response rating, Wheat [13, 22]: 0; Plant response rating, Ragweed [14, 16]: 10; Plant response rating, Ragweed [14, 23]: 30; Ragweed plant response rating [14, 18]: 70; Plant response rating, Ragweed [14, 19]: 70 |
| CCc1nn(C)c(=O)c(-c2c(C)oc3ccc(C)cc23)c1O [Compound 118] | 0 | 0 | 0 | 0 | 0 | 0 | 0 | 0 | 0 | 20 | 0 | 0 | 0 | 0 | 0 | 0 | 0 | 0 | 0 | 0 | Plant response rating, Galium [1, 22]: 0; Plant response rating, Blackgrass [2, 22]: 0; Plant response rating, Corn [7, 22]: 0; Plant response rating, Foxtail, Giant [8, 23]: 0; Plant response rating, Ryegrass, Italian [9, 23]: 0; Plant response rating, Barnyardgrass [10, 23]: 0; Plant response rating, Barnyardgrass [10, 19]: 30; Plant response rating, Kochia [11, 23]: 0; Plant response rating, Pigweed [12, 23]: 0; Plant response rating, Pigweed [12, 19]: 10; Plant response rating, Wheat [13, 15]: 0; Plant response rating, Wheat [13, 22]: 0; Plant response rating, Ragweed [14, 16]: 0; Plant response rating, Ragweed [14, 23]: 0; Ragweed plant response rating [14, 18]: 0; Plant response rating, Ragweed [14, 19]: 0 |

From US10597388B2, “Pyridazinone herbicides” (FMC CORPORATION, priority 2014, dated 2020)
